Patent publication US6642256B2, “Piperidine derivatives as subtype selective N-Methyl-D-Aspartate antagonists” (Warner-Lambert Company LLC, priority 2000, dated 2003)

Molecular target: NR1A/NR2B NMDA receptor (Rattus norvegicus, UniProt P35439+Q00960)
Assay: Electrophysiological NR1A/NR2B assay in Xenopus oocytes (two-electrode voltage clamp)
Format: cell-based
Conditions: Table 1; oocytes expressing NR1A/NR2B, currents activated by glutamate and glycine
Text: I. Electrophysiological assays at NMDA receptor subunits (in vitro):
(i) Preparation of subunit RNA's:
cDNA clones encoding the NR1A, NR2A, NR2B, and NR2C rat NMDA receptor subtypes were used. (See, Moriyoshi et al., Nature (Lond.), 1991;354:31-37; Kutsuwada et al., Nature (Lond.), 1992;358:36-41; Monyer et al., Science (Washington, D.C.) 1992;256:1217-1221; Ikeda et al., FEBS Lett. 1992;313: 34-38; Ishii et al., J. Biol. Chem., 1993;268:2836-2843 for details of these clones or their mouse homologs). The clones were transformed into appropriate host bacteria and plasmid preparations were made with conventional DNA purification techniques. A sample of each clone was linearized by restriction enzyme digestion […] was synthesized with T3 RNA polymerase. The cRNA was diluted to 400 ng/μl and stored in 1 μl aliquots at −80° C. until injection.
(ii) The Xenopus oocyte expression system: […]
Electrical recordings were made using a conventional two-electrode voltage clamp (Dagan TEV-200) over periods ranging between 3 to 21 days following injection. […] Inhibitory potency of the novel antagonists of this invention was assessed on responses elicited by fixed concentrations of glutamate and glycine agonists, by measuring reductions in current induced by progressively increasing concentrations of invention compounds. […]

Sequence of NR1A/NR2B NMDA receptor (Q00960 27-1482, other chains not shown): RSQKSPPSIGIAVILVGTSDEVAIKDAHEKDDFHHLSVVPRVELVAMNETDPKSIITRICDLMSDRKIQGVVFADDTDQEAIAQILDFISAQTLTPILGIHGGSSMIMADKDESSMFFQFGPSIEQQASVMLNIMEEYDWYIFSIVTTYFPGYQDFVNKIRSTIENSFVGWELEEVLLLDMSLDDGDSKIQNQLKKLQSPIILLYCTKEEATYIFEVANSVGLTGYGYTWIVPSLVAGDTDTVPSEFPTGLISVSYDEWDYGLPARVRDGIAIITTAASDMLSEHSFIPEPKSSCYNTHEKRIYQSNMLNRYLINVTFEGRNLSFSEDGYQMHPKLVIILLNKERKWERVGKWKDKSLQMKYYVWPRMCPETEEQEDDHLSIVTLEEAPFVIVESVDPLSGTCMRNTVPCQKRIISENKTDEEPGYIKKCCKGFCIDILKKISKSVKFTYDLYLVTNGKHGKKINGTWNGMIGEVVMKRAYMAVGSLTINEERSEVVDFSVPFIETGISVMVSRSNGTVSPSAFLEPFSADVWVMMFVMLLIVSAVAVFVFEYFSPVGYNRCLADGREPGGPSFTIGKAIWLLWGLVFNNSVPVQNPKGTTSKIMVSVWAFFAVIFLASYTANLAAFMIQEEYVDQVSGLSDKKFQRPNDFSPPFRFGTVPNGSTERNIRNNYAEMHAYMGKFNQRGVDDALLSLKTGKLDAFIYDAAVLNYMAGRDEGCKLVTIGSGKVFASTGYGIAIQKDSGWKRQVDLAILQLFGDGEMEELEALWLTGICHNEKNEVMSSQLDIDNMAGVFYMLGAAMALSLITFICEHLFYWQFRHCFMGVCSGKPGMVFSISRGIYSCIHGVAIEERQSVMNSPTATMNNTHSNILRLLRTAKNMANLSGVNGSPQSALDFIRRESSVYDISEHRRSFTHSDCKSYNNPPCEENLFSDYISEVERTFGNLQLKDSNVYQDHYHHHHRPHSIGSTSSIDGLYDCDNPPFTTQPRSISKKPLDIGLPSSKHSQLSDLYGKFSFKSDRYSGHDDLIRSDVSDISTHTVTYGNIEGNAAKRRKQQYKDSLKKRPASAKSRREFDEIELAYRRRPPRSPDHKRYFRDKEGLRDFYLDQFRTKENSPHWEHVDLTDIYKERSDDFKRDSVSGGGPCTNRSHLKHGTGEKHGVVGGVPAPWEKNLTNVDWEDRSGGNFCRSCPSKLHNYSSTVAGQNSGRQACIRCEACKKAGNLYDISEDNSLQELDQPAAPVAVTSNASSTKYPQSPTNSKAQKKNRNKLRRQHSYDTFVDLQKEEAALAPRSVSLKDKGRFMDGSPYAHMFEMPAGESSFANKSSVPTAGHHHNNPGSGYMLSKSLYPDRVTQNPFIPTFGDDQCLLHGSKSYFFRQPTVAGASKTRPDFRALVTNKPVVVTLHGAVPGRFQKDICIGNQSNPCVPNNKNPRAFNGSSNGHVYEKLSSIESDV

SMILES: O=c1[nH]c2ccc(C3=NOC(CN4CCC(Cc5ccccc5)CC4)C3)cc2o1 (racemic) [Example 1, 6-[5-(4-Benzylpiperidin-1-ylmethyl)-4,5-dihydroisoxazol-3-yl]-3H-benzoxazol-2-one]
- IC50: 0.08 µM
